US9594084B2, “Phosphorylation of histones and uses thereof” (H. LEE MOFFITT CANCER CENTER AND RESEARCH INSTITUTE, priority 2012, dated 2017)

Experiments:
[1] = test system: cancers and cancer cell lines; details: cited from earlier work
[2] = test system: core histone genes located in Hist1 cluster; assay: Quantitative RT-PCR of core histone transcripts in synchronized MEFs; type: cell-based, mouse; details: MK1775 0.625 μM, 14 hr, after 6.30 hours post-release (compare 8.30 hours)
[3] = test system: core histone genes located in Hist1 cluster; assay: qRT-PCR of histone genes (8-histone gene signature) in synchronized cells; type: cell-based; details: MK1775 0.6 uM, 14 hr, 8.30 hours post-release
Experimental: FIG. 33a-33h show a 8-histone gene signature. a-h, Synchronized cells treated with WEE1 inhibitor, MK1775 (0.6 uM, 14 hr) were harvested at indicated time points post-release. Total RNA was prepared followed by quantitative RT-PCR for 8 histone genes.
Human cells have 55 distinct histone genes each encoding a fraction of core histones. This study determined histone levels using 20 of these genes. In untreated cells, rapid decrease in transcripts of all of these histone genes was observed when RNA levels of 6.30 hours post-release samples (late S phase) were compared with 8.30 hours post-release (G2/M phase) samples (FIGS. 33a-33h).
Based on extensive transcriptional profiling of 20 histone genes, this study identified 8 genes (H2Bm, H2bn, H2Bl, H3 h, H4j, H2Ai, H2Ak and H2Bk) as being representative of global histone transcriptional output, termed as the 8-histone gene signature.

[4] = target: WEE1 (Homo sapiens, UniProt P30291); assay: Peptide Immunosandwich Assay (PIA) with purified WEE1; type: biochemical; set-up: GST; purchased Invitrogen; details: purified WEE1 protein (100 ng), 5 uM
WEE1, sequence (P30291 whole entry): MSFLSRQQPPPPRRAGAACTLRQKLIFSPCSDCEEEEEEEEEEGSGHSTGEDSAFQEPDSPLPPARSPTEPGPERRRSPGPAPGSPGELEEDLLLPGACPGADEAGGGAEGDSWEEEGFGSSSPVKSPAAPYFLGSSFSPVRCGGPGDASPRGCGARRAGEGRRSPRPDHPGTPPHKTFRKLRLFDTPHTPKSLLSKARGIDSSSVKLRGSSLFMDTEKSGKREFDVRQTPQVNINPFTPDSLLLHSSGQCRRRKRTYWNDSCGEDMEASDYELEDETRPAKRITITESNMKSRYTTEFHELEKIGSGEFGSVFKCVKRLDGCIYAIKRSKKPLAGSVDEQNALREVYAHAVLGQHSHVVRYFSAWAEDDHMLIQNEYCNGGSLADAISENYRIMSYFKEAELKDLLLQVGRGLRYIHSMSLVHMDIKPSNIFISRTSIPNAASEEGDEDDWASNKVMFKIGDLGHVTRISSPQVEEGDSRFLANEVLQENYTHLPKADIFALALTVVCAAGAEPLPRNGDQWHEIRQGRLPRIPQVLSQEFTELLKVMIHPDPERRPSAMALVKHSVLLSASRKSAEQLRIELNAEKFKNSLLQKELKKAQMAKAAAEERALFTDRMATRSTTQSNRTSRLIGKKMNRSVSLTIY
Experimental: H2B Tyr37-phosphorylation was determined as described in the text.
In brief, Streptavidin coated 96-well plates (R&D systems) were incubated with biotinylated human histone H2B derived peptides […] (SEQ ID NO: 62, Y37 site is underlined). H2B derived phospho-peptide KRSRKESp[…] (SEQ ID NO: 63) was used as positive control. Any unbound areas on the plate were blocked with 3% BSA. Next, purified WEE1 protein (100 ng) prepared in kinase buffer (20 mM HEPES, 225 mM NaCl, 1% Triton X-100, 10% glycerol, phosphatase and protease inhibitors) supplemented with 1 uM ATP and 1 uM MgCl2. After 2 hours of incubation, plates were washed with phosphate buffered saline containing 0.1% Tween 20 (PBST) and reblocked in 3% BSA. The pY37-H2B or pTyr antibodies (at 1:1000 dilution) were added and incubated for 1 hour. Unbound antibodies were washed and HRP-conjugated anti-mouse secondary antibodies (1:5000) were added. The magnitude of phosphorylation was detected using developer solution (OPD tablets, Sigma) and after 20 minutes of incubation, the plates were read at 450 nm.
The Peptide Immunosandwich Assay was first validated using purified WEE1 protein (100 ng) and cancer derived cell lines (50 ug). […] PIA was also validated using cancer derived cells lines MDA-MB231 (low WEE1 activity) and LAPC4 cells (high WEE1 activity). […] As negative controls, H2B peptide alone or WEE1 enzyme alone were used. […]

[5] = test system: pY37-H2B epigenetic marks within IDH2; assay: Directed ChIP-PCR of pY37-H2B marks in IDH2 coding region, synchronized MEFs; type: cell-based, mouse

pY37-H2B levels [4]: significant decrease
SMILES: C=CCn1c(=O)c2cnc(Nc3ccc(N4CCN(C)CC4)cc3)nc2n1-c1cccc(C(C)(C)O)n1 [MK-1775]
sensitization to DNA damaging agents such as gemcitabine, 5-fluorouracil [1]: able to sensitize
histone mRNA levels [2]: significant increase
histone mRNA levels [3]: did not decrease
deposition of pY37-H2B epigenetic marks in the IDH2 coding region [5]: abolished
